Laboratory results as given in ChEMBL document CHEMBL1828590 (J Med Chem, 2011).

Tests used:
[1] = Half life in human liver microsomes; assay type: ADME, Microsome
[2] = Half life in mouse liver microsomes; assay type: ADME, Microsome; details: liver microsomes
COLO 205 = test: Antiproliferative activity against human COLO205 cells after 96 hrs by celltiter 96 assay; assay type: functional, cell-based; details: COLO 205, 96 h
A2780 = test: Antiproliferative activity against human A2780 cells after 96 hrs by celltiter 96 assay; assay type: functional, cell-based; details: A2780, 96 h
HCT-116 = test: Antiproliferative activity against human HCT116 cells after 96 hrs by celltiter 96 assay; assay type: functional, cell-based; details: HCT-116, 96 h
PC-3 = test: Antiproliferative activity against human PC3 cells after 96 hrs by celltiter 96 assay; assay type: functional, cell-based; details: PC-3, 96 h
Histone deacetylase 1 [3] = molecular target: T1, Histone deacetylase 1 (Homo sapiens, UniProt Q13547)
T1 sequence (Q13547 whole entry): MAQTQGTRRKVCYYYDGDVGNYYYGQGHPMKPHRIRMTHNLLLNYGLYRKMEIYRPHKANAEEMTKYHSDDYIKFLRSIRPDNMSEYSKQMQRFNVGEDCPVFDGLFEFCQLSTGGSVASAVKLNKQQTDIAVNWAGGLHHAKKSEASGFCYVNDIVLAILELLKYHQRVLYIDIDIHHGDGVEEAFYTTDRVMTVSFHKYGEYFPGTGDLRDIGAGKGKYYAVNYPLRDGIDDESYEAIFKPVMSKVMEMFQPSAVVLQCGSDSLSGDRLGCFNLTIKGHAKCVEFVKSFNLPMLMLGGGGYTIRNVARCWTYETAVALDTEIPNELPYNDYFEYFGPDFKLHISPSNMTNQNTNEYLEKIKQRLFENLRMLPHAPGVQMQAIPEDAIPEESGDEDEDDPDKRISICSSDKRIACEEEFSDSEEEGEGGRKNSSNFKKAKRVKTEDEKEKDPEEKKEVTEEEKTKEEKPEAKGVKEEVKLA

Histone deacetylase 3 = Histone deacetylase 3 (Homo sapiens, UniProt O15379)
Sequence of Histone deacetylase 3 (O15379 whole entry): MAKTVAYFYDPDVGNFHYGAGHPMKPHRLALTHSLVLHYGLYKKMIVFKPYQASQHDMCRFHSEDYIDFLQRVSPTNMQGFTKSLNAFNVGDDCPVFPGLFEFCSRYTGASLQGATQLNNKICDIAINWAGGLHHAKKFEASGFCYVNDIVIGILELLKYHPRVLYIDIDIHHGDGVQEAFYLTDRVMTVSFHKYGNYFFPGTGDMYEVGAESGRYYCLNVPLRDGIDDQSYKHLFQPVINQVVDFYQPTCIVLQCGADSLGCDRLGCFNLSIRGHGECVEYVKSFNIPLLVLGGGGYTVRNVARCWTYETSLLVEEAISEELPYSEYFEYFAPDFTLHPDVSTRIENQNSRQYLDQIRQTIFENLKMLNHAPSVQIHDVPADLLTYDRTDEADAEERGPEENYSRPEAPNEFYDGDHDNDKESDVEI

Histone deacetylase 4 = Histone deacetylase 4 (Homo sapiens, UniProt P56524)
Sequence of Histone deacetylase 4 (P56524 whole entry): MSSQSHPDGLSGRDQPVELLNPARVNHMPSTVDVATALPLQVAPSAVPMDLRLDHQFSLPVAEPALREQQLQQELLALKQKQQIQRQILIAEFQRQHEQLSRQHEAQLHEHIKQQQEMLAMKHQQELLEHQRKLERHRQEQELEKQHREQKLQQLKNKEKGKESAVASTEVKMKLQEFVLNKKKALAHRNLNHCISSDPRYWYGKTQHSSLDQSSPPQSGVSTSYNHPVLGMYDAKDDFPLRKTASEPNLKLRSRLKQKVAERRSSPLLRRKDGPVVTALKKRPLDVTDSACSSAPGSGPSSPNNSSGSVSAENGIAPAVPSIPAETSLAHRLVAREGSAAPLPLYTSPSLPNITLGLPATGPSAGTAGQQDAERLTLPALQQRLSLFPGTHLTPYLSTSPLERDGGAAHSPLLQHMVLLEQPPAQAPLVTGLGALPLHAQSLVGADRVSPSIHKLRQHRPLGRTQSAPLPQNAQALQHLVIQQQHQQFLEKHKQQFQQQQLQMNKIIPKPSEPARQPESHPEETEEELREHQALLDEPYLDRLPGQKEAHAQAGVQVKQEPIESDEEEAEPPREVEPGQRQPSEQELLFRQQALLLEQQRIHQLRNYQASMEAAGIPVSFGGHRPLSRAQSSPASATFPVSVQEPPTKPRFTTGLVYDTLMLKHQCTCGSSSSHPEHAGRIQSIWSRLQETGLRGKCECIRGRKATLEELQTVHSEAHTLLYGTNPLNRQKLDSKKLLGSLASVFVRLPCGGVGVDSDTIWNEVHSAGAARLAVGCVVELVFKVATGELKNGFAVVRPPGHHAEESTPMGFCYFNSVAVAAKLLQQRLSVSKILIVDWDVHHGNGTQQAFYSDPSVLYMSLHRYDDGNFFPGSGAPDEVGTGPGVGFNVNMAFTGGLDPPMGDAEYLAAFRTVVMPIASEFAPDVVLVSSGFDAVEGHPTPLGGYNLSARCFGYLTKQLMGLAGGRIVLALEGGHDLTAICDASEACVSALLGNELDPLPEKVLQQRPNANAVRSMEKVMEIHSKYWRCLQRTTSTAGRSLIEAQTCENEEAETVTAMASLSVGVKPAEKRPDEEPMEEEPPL

Histone deacetylase 5 = Histone deacetylase 5 (Homo sapiens, UniProt Q9UQL6)
Sequence of Histone deacetylase 5 (Q9UQL6 whole entry): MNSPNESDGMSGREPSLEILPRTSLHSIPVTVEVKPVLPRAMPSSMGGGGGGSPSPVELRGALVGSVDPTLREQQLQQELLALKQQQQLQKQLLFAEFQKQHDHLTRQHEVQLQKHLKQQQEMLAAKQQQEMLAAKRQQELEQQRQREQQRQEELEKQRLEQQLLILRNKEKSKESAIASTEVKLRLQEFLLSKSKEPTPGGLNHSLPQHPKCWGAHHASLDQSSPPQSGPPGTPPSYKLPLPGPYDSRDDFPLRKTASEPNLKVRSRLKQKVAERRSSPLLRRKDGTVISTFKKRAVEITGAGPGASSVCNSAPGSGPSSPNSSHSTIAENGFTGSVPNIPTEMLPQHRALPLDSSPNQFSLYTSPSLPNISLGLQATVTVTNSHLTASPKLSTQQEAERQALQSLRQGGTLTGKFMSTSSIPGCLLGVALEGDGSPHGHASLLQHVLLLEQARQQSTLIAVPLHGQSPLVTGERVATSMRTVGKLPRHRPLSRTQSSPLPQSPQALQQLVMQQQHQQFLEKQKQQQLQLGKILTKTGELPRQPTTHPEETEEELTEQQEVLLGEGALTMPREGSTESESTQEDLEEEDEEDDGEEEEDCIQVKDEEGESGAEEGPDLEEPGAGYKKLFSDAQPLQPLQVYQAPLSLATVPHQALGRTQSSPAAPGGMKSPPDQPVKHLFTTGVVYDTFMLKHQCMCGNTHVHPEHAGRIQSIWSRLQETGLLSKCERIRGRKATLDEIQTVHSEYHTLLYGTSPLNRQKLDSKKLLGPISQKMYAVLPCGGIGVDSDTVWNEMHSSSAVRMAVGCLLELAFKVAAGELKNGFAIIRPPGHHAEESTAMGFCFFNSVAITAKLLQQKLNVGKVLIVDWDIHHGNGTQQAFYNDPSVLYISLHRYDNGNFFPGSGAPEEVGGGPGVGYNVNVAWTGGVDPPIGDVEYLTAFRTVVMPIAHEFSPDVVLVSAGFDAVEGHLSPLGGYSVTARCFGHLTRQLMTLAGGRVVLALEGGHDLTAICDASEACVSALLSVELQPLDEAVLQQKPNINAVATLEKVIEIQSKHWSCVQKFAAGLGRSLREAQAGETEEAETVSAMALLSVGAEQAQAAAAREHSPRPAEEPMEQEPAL

[4] = molecular target: T2, Protein deacetylase HDAC6 (Homo sapiens, UniProt Q9UBN7)
T2 sequence (Q9UBN7 whole entry): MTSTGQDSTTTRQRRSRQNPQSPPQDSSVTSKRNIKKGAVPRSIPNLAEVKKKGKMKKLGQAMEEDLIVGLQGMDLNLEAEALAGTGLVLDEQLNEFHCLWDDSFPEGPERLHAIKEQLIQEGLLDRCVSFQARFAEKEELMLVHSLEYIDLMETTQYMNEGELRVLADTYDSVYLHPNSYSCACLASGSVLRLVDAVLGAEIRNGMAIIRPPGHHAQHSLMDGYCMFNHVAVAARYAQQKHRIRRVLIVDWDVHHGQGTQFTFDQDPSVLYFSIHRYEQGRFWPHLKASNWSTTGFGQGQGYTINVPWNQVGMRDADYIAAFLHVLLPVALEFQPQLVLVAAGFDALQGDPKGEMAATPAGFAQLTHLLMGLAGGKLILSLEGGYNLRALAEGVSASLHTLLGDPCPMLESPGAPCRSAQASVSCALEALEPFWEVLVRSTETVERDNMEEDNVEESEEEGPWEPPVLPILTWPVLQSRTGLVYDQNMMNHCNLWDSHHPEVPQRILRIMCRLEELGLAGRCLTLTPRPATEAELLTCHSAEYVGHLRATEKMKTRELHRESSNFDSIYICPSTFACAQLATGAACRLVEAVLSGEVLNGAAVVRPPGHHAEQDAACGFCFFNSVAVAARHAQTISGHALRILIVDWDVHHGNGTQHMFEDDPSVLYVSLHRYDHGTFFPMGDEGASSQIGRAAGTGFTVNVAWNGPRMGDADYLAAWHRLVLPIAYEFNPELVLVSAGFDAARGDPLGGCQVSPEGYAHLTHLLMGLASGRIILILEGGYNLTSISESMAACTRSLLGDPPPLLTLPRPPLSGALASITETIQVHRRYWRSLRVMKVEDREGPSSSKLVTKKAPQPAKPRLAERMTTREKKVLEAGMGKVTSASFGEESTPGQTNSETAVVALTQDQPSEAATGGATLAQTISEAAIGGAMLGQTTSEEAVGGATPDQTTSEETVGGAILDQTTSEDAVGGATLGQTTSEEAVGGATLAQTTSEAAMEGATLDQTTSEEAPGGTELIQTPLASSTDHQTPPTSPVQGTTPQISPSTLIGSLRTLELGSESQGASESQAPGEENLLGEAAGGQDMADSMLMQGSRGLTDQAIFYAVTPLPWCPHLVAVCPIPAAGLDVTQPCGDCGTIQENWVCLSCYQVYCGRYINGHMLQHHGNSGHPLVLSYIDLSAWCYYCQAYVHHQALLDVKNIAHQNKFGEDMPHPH

Histone deacetylase 8 = molecular target: T3, Histone deacetylase 8 (Homo sapiens, UniProt Q9BY41)
T3 sequence (Q9BY41 whole entry): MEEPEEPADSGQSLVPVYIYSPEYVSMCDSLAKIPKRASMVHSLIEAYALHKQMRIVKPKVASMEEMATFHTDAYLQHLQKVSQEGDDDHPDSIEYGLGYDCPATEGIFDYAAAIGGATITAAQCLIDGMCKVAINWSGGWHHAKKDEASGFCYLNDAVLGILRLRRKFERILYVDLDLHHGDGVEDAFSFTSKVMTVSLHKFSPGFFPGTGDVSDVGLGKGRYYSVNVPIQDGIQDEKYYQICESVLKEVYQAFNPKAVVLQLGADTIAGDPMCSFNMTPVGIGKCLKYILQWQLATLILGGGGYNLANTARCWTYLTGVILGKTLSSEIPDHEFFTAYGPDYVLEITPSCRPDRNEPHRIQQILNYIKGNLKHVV

Histone deacetylase 9 = Histone deacetylase 9 (Homo sapiens, UniProt Q9UKV0)
Sequence of Histone deacetylase 9 (Q9UKV0 whole entry): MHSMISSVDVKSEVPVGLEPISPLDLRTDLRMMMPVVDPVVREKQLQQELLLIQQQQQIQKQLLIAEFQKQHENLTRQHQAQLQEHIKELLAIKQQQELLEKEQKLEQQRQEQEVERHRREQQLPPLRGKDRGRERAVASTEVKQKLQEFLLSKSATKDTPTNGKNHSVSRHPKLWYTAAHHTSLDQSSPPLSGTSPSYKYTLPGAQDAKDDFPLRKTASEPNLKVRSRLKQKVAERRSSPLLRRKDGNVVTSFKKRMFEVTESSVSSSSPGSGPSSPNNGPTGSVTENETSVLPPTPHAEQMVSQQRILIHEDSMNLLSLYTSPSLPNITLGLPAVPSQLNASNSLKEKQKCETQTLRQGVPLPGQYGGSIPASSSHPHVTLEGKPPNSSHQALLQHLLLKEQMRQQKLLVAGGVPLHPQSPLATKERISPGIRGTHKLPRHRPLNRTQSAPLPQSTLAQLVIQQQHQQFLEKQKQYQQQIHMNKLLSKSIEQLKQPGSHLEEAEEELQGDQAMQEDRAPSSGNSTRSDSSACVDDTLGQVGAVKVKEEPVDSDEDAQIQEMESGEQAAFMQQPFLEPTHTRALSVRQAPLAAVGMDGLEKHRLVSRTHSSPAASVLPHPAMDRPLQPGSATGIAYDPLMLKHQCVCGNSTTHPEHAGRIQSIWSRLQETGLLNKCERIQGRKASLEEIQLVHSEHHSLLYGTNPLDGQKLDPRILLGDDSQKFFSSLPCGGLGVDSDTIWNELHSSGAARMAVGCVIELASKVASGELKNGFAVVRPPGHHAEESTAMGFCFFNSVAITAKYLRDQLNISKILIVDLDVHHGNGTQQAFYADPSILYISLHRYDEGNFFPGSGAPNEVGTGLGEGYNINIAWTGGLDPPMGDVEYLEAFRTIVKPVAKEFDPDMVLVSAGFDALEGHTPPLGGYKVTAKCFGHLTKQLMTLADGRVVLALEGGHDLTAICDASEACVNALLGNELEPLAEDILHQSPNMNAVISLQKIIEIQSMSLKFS

[5] = molecular target: T4, Polyamine deacetylase HDAC10 (Homo sapiens, UniProt Q969S8)
T4 sequence (Q969S8 whole entry): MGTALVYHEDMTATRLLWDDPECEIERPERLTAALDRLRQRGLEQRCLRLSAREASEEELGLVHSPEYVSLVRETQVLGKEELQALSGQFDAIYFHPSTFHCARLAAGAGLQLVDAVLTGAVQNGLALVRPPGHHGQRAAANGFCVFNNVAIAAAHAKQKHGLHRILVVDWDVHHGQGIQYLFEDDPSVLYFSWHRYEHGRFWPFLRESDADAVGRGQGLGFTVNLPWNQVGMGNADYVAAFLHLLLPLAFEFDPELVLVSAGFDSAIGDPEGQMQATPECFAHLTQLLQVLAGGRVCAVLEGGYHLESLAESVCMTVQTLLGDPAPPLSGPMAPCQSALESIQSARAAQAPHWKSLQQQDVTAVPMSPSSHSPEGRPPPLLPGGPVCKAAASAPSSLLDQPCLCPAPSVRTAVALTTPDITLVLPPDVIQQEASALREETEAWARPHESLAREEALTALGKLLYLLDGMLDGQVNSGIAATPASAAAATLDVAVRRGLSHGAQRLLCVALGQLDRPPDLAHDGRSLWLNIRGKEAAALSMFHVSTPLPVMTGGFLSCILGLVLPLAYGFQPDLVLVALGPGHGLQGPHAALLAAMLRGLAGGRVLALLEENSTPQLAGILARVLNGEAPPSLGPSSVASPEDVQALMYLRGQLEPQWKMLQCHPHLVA

Histone deacetylase […] = molecular target: T5, Histone deacetylase […] (Homo sapiens, UniProt Q96DB2)
T5 sequence (Q96DB2 whole entry): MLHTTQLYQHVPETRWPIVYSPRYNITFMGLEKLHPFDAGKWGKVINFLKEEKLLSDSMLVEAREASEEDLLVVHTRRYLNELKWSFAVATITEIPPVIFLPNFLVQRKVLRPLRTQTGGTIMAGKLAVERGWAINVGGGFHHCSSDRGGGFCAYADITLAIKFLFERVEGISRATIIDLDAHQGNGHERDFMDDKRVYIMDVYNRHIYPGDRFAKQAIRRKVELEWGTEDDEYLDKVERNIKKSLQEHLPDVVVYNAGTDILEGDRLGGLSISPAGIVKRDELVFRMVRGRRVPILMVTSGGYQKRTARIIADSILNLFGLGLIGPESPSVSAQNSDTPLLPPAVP

Histone deacetylase 1 [6] = molecular target: T1, Histone deacetylase 1; remark: listed apart in the source
Histone deacetylase 2 = Histone deacetylase 2 (Homo sapiens, UniProt Q92769)
Sequence of Histone deacetylase 2 (Q92769 whole entry): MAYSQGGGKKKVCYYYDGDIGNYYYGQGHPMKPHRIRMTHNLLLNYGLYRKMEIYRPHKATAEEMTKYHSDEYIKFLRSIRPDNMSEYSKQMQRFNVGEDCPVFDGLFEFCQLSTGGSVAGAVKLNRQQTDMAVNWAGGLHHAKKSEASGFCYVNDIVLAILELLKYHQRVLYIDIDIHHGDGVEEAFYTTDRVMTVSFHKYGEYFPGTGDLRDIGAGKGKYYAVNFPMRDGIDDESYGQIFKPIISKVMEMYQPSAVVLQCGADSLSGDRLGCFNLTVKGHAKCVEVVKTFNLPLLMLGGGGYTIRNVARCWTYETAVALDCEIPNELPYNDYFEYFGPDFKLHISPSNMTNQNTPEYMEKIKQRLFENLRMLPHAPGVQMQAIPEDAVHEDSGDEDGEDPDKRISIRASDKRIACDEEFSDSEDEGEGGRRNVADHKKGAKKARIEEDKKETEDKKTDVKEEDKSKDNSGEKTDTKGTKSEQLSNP

[7] = Half life in rat liver microsomes; assay type: ADME, Microsome
[8] = Half life in dog liver microsomes; assay type: ADME, Canis lupus familiaris, Microsome
[9] = Kinetic solubility of the compound at pH 7 with […] DMSO; assay type: physicochemical; details: buffer, read-out: Kinetic_solubility
[10] = 1-Octanol-sodium phosphate buffer distribution coefficient, log D of the compound at pH 7.4; assay type: physicochemical; details: octanol/water
[11] = Apparent permeability from apical to basolateral side of human Caco2 cells; assay type: ADME, cell-based; details: Caco-2
[12] = Apparent permeability from basolateral to apical side of human Caco2 cells; assay type: ADME, cell-based; details: Caco-2

half-life [1] [min]	half-life [2] [min]	IC50 (COLO 205) [nM]	IC50 (A2780) [nM]	IC50 (HCT-116) [nM]	IC50 (PC-3) [nM]	Ki (Histone deacetylase 1 [3]) [nM]	Ki (Histone deacetylase 3) [nM]	Ki (Histone deacetylase 4) [nM]	Ki (Histone deacetylase 5) [nM]	Ki [4] [nM]	Ki (Histone deacetylase 8) [nM]	Ki (Histone deacetylase 9) [nM]	Ki [5] [nM]	Ki (Histone deacetylase […]) [nM]	IC50 (Histone deacetylase 1 [6]) [nM]	Ki (Histone deacetylase 2) [nM]	Structure (SMILES)	also measured
≥ 30	5	–	–	–	–	–	–	–	–	–	–	–	–	–	–	–	CCN(CC)CCn1c(CCc2ccccc2)nc2cc(/C=C/C(=O)NO)ccc21	–
–	–	310	200	660	160	7.7	16	2.4	3.1	4	55	5.7	18	8.8	21	8.6	CC/C=C\CCc1nc2cc(/C=C/C(=O)NO)ccc2n1CCNCC	–
–	–	280	230	260	120	10	10	3.6	5.6	227	94	4.4	19	4.2	30	14	CCCCCc1nc2cc(/C=C/C(=O)NO)ccc2n1CCNC(C)C	–
≥ 30	5	130	–	190	–	–	12	8.5	–	20	95	–	–	–	–	–	O=C(/C=C/c1ccc2c(c1)nc(CCc1ccccc1)n2CCN1CCCC1)NO	half-life [7]: 4.3 min; half-life [8]: 18 min; solubility kinetic [9]: > 200 µM; logD [10]: 2.1; Papp A→B [11]: 3.01 ×10⁻⁶ cm/s; Papp B→A [12]: 27.7 ×10⁻⁶ cm/s
–	–	620	370	920	380	–	–	–	–	–	–	–	–	–	53	–	CC/C=C\CCc1nc2cc(/C=C/C(=O)NO)ccc2n1CC(C)(C)CN(C)C	–
–	–	810	1240	1300	950	–	–	–	–	–	–	–	–	–	92	–	CCN(CC)CCn1c(CC(C)C)nc2cc(/C=C/C(=O)NO)ccc21	–
